Where a name gives a salt, the structure may show the parent alone.
Target: hERG (Homo sapiens, UniProt Q12809)
Assay: cell-based
Conditions: (-LOG10(IC50), µM)

hERG, sequence (Q12809 whole entry): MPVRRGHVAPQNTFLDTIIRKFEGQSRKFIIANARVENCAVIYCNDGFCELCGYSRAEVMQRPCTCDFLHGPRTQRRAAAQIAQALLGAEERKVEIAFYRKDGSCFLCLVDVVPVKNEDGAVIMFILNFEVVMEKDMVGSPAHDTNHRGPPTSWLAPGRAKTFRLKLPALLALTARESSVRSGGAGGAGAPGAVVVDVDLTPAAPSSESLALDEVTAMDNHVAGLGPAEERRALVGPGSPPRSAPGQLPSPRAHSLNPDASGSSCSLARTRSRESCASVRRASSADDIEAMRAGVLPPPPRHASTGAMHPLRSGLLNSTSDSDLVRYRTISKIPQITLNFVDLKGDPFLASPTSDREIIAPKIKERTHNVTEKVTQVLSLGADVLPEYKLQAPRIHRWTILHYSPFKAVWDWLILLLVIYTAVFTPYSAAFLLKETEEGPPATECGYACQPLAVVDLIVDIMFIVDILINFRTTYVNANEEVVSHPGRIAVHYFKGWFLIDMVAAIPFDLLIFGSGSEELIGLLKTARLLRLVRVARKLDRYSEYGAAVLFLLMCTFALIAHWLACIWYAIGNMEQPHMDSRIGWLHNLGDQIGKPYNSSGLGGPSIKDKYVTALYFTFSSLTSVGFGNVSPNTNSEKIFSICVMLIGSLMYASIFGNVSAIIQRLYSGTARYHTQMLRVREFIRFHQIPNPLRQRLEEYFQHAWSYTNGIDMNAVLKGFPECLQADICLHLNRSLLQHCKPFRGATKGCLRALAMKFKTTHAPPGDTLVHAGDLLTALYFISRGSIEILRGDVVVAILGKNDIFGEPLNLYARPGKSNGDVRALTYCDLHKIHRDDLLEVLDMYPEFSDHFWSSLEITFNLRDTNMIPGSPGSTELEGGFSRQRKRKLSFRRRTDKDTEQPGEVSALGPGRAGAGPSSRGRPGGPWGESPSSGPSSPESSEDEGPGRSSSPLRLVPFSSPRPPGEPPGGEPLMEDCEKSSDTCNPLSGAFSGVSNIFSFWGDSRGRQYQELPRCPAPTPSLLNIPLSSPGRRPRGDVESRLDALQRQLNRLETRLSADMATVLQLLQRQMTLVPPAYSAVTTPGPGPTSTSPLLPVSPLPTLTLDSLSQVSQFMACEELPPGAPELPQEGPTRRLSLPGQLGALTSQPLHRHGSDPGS

Structure (SMILES)	IC50
Cc1cc(C)c(C(=O)P(=O)(c2ccccc2)c2ccccc2)c(C)c1 [Diphenyl(2,4,6-trimethylbenzoyl)phosphine oxide]	20.3 µM
CN(C)[C@@H](CCOc1cccc2ccccc12)c1ccccc1 [Dapoxetine]	7.56 µM
C[N+]1(C)CCC(=C(c2ccccc2)c2ccccc2)CC1 [Diphemanil methylsulfate]	6.24 µM
O=C1c2ccccc2C(=O)N1SC(Cl)(Cl)Cl [Folpet]	27.5 µM
CCCN(CCC)C(=O)C(CCC(=O)OCCCN1CCN(CCOC(=O)Cc2c(C)n(C(=O)c3ccc(Cl)cc3)c3ccc(OC)cc23)CC1)NC(=O)c1ccccc1 (centres unmarked) [Proglumetacin]	0.365 µM
CC(NCCC(c1ccccc1)c1ccccc1)c1ccccc1 (centres unmarked) [Fendiline hydrochloride]	1.69 µM
NC(=O)C1(N2CCCCC2)CCN(CCCN2c3ccccc3CCc3ccc(Cl)cc32)CC1 [Clocapramine]	1.45 µM
O=[N+]([O-])c1cccc(S(=O)(=O)NCCNS(=O)(=O)c2cccc([N+](=O)[O-])c2)c1 [Dinsed]	14.5 µM
c1ccc(OCc2ccc(CCCN3CCOCC3)cc2)cc1 [Fomocaine]	10.7 µM
Cc1nccn1-c1ccc(Sc2cccc(C3(C(N)=O)CCOCC3)c2)cc1 [CJ-013610]	47.1 µM
CCOC(=O)C1(c2ccccc2)CCN(CCC(C#N)(c2ccccc2)c2ccccc2)CC1 [Diphenoxylate hydrochloride]	0.624 µM
O=S(=O)(c1ccc(Cl)cc1)c1ccc(Cl)cc1 [4,4'-Dichlorodiphenyl sulfone]	49.7 µM
CC(C)C(OC(=O)c1ccccc1)C(C)(C)COC(=O)c1ccccc1 (centres unmarked) [2,2,4-Trimethylpentane-1,3-diyl dibenzoate]	21.9 µM
CCCCCCCCC=CCCCCCCCC1=NCCN1CCO [2-(8-Heptadecenyl)-2-imidazoline-1-ethanol]	11.8 µM
COc1ccnc(C[S+]([O-])c2nc3ccc(OC(F)F)cc3[nH]2)c1OC (centres unmarked) [Pantoprazole sodium]	49.3 µM
COc1ccc(CN(CCN(C)C)c2ccccn2)cc1 [Pyrilamine maleate]	20.9 µM
Oc1ccc(C(=C(Cl)Cl)c2ccc(O)cc2)cc1 [Bis(4-hydroxyphenyl)-2,2-dichloroethylene]	47 µM
CCCCCCCCCCCCn1cc[n+](C)c1 [1-Dodecyl-3-methylimidazolium chloride]	2.87 µM
O[C@@H](CNC[C@H](O)[C@H]1CCc2cc(F)ccc2O1)[C@@H]1CCc2cc(F)ccc2O1 (racemic) [rac Nebivolol hydrochloride]	2.49 µM
Nc1ccc(C(=O)N2CC3CC(CN(Cc4ccccc4)C3)C2)cc1 [Ambasilide]	21.3 µM
CCCOC/C(=N\c1ccc(Cl)cc1C(F)(F)F)n1ccnc1 [Triflumizole]	36 µM

Structure (SMILES)	IC50
C[C@]12CC[C@H]3[C@@H](CCC4=CC(=O)CC[C@@H]43)[C@@H]1CC[C@@H]2OC(=O)CCc1ccccc1 [Nandrolone phenpropionate]	12.5 µM
Brc1ccccc1-c1ccccc1 [2-Bromobiphenyl]	35.5 µM
CC(C)OC(=O)c1cc(C(=O)OC(C)C)cc([N+](=O)[O-])c1 [Nitrothal-isopropyl]	40.6 µM
CN(C)c1ccc(C(=C2C=CC(=[N+](C)C)C=C2)c2ccccc2)cc1 [Malachite green]	4.25 µM
Cc1ccc(O)c(C(=O)c2ccccc2)c1 [2-Hydroxy-5-methylbenzophenone]	35 µM
O=[N+]([O-])c1ccc(Oc2ccc([N+](=O)[O-])cc2)cc1 [1,1'-Oxybis(4-nitrobenzene)]	32.8 µM
CN1CCN(c2ccccc2/C=C2\SCCN(c3ccc(Cl)c(Cl)c3)C2=O)CC1 [Elzasonan]	1.61 µM
S=C=NCCc1ccccc1 [Phenethyl isothiocyanate]	16.8 µM
Cl[C@H]1[C@H](Cl)[C@@H](Cl)[C@H](Cl)[C@H](Cl)[C@H]1Cl [alpha-1,2,3,4,5,6-Hexachlorocyclohexane]	49.4 µM
Nc1ccc(Cl)cc1C(=O)c1ccccc1 [2-Amino-5-chlorobenzophenone]	50.9 µM
CCc1ccc(C(c2ccc(CC)cc2)C(Cl)Cl)cc1 [p,p'-Ethyl-DDD]	17.7 µM
CCN(CC)CC1CCCCN1CC(=O)N1c2ccccc2C(=O)Nc2cccnc21 (centres unmarked) [AF-DX 116]	20.5 µM
CCC(=O)C(CCN(C)C)(c1ccccc1)c1ccccc1 [Normethadone]	15.1 µM
CCCCCCCCOCCCN [3-(Octyloxy)propan-1-amine]	43.6 µM
CC(=O)O[C@@H]1CC2C3CCc4cc(OC(=O)c5ccccc5)ccc4C3CCC2(C)[C@H]1OC(C)=O (some centres unmarked) [Estriol benzoate diacetate]	5.35 µM
Cc1c(Cl)c(=O)oc2cc(OP(=O)(OCCCl)OCCCl)ccc12 [Haloxon]	22.1 µM
O=C1OC2(c3ccccc31)c1ccc(O)c(Br)c1Oc1c2ccc(O)c1Br [C.I. Solvent Red 72]	34.7 µM
CCCCCCCCn1sc(Cl)c(Cl)c1=O [4,5-Dichloro-2-octyl-3(2H)-isothiazolone]	16.1 µM
CCCCCCCCCCn1cc[n+](C)c1 [1-Decyl-3-methylimidazolium trifluoromethanesulfonate]	13.6 µM
CN(Cc1ccc(C(C)(C)C)cc1)Cc1cccc2ccccc12 [Butenafine]	12 µM
Cn1c(-c2ccccc2)cc(-c2ccccc2)[n+]1C [Difenzoquat metilsulfate]	34.7 µM

Structure (SMILES)	IC50
CC(C)N(C(=O)SCC(Cl)=C(Cl)Cl)C(C)C [Tri-allate]	20 µM
OCCN1CCN(CC/C=C2/c3ccccc3Sc3ccc(C(F)(F)F)cc32)CC1 [cis-Flupentixol]	1.69 µM
Cc1cccc(Nc2ccccc2)c1 [3-Methyl-N-phenylaniline]	52.9 µM
CCCCCCCCCCCCCCn1cc[n+](C)c1 [1-Methyl-3-tetradecylimidazolium chloride]	8.62 µM
Cc1ccc(N(SC(F)(Cl)Cl)S(=O)(=O)N(C)C)cc1 [Tolylfluanid]	19.5 µM
CCOP(=S)(OCC)SCn1c(=O)oc2cc(Cl)ccc21 [Phosalone]	23.5 µM
Clc1nc(C(Cl)(Cl)Cl)c(Cl)c(Cl)c1Cl [2,3,4,5-Tetrachloro-6-(trichloromethyl)pyridine]	49 µM
CCCC[C@H]1CN(CC2CCOCC2)C(=O)OC12CCN(C1(C)CCN(C(=O)c3c(C)ncnc3C)CC1)CC2 [PharmaGSID_48521]	13.6 µM
O=C1NCN(c2ccccc2)C12CCN(CC1COc3ccccc3O1)CC2 (centres unmarked) [Spiroxatrine]	6.24 µM
CC(=O)OC1(c2ccccc2)CCN(CCc2ccccc2)CC1 [1-(2-Phenylethyl)-4-phenyl-4-acetoxypiperidine]	22.4 µM
N#Cc1ccc(CC(=O)c2cccc(C(F)(F)F)c2)cc1 [4-{2-Oxo-2-[3-(trifluoromethyl)phenyl]ethyl}benzonitrile]	30.9 µM
Cc1cc(O)c2ccccc2c1O [Menadiol]	2.68 µM
Clc1ccc(C(c2ccccc2Cl)C(Cl)(Cl)Cl)cc1 (centres unmarked) [o,p'-DDT]	21.5 µM
O=C(N=NC(=O)OCc1ccccc1)OCc1ccccc1 [Dibenzyl diazene-1,2-dicarboxylate]	21.9 µM
CCCCCCCCCCCCCC[P+](CCCCCC)(CCCCCC)CCCCCC.N#C[N-]C#N [Trihexyltetradecylphosphonium dicyanamide]	0.55 µM
O=C1C=CC(=O)N1c1ccc(Cc2ccc(N3C(=O)C=CC3=O)cc2)cc1 [Bismaleimide]	43.6 µM
CC1C2CC(CC2C2CCCC(O)C2)C1(C)C (centres unmarked) [3-(5,5,6-Trimethylbicyclo[2.2.1]hept-2-yl)cyclohexanol]	22.7 µM
CC(Cc1ccc(C(C)(C)C)cc1)CN1C[C@@H](C)O[C@@H](C)C1 (stereo partly drawn) [(2R,6S)-Fenpropimorph]	15.5 µM
CCCCCCCCCCCCCCCC[N+](C)(C)CCN(Cc1ccc(OC)cc1)c1ncccn1 [Thonzonium bromide]	0.409 µM
O=C(C=Cc1ccccc1)OCCc1ccccc1 [Phenethyl cinnamate]	36 µM
CCOP(=S)(OCC)SCCSCC [Disulfoton]	43.3 µM

Structure (SMILES)	IC50
N#Cc1c(-c2ccc(Cl)cc2)[nH]c(C(F)(F)F)c1Br [Tralopyril]	11 µM
CC(CN(C)C)CN1c2ccccc2CCc2ccccc21 (centres unmarked) [Trimipramine hydrogen maleate]	14.5 µM
CCOP(=S)(OCC)Oc1ccc([N+](=O)[O-])cc1 [parathion]	45.9 µM
CNCCCC1c2ccccc2C=Cc2ccccc21 [Protriptyline hydrochloride]	23.9 µM
C=CCCC(=O)/C=C/C1C(C)=CCCC1(C)C (centres unmarked) [Allyl Ionone]	30.9 µM
CCN(CC)CCNC(=O)COc1ccc(Cl)cc1 [Clofexamide]	16.3 µM
CCCCOC(=O)C(C)Oc1ccc(Oc2ccc(C(F)(F)F)cn2)cc1 (centres unmarked) [Fluazifop-butyl]	23.2 µM
CCCCc1oc2ccc(NS(C)(=O)=O)cc2c1C(=O)c1ccc(OCCCN(CCCC)CCCC)cc1 [Dronedarone]	0.849 µM
CCCN1C[C@H](CSC)C[C@@H]2c3cccc4[nH]cc(c34)C[C@H]21 [Pergolide methanesulfonate]	7.56 µM
COc1ccc2c(c1OC)C(=O)O[C@H]2[C@@H]1c2cc3c(cc2CCN1C)OCO3 [(1S,9R)-beta-Hydrastine]	19 µM
C#CCN(C)CCCOc1ccc(Cl)cc1Cl [N-Methyl-N-propargyl-3-(2,4-dichlorophenoxy)propylamine hydrochloride]	8.82 µM
CCCOc1sc(C(=O)N2CCC(c3cc(CN)ccc3F)CC2)c(C)c1Br [AVE8923]	4.49 µM
Clc1ccc(C(c2ccccc2Cl)C(Cl)Cl)cc1 (centres unmarked) [1-(2-Chlorophenyl)-1-(4-chlorophenyl)-2,2-dichloroethane]	21.9 µM
CCCCCCCCCCn1cc[n+](C)c1 [1-Decyl-3-methylimidazolium hexafluorophosphate]	8.37 µM
Cc1[nH]nc2c1N=C(c1ccccc1Cl)c1cc([N+](=O)[O-])ccc1N2 [PharmaGSID_48505]	11.4 µM
CCCCN(CCCC)CC(O)c1cc(Cl)cc2c1-c1ccc(Cl)cc1/C2=C/c1ccc(Cl)cc1 (centres unmarked) [Lumefantrine]	3.65 µM
ClC(Cl)=C(c1ccc(Cl)cc1)c1ccccc1Cl [o,p'-DDE]	21 µM
COc1ccc(CN(CCN(C)C)c2ccccn2)cc1 [Pyrilamine]	27.4 µM
[H]/N=C(\N/C(=N/[H])Nc1ccc(Cl)cc1)NC(C)C [Proguanil hydrochloride]	20.1 µM
CCN(CC)CCOc1ccccc1C(=O)CCc1ccccc1 [Etafenone]	3.25 µM
